Laboratory results: US6632960B2, “Diaryliodonium salt catalysts made from iodotoluene and a method for preparing them” (Goldschmidt AG, priority 2002, dated 2003)

Key:
[1] = Iodonium catalyst solubility studies: time to dissolve to a clear solution at 70° C.; details: Comparison 2: 3 parts by weight catalyst in 100 parts PC-1000 (epoxy siloxane monomer); 2.9 wt. % solution
[2] = Solution stability of catalyst solutions on storage at 25° C.; assay type: physicochemical; details: Comparison 3: 40 parts catalyst in 60 parts ERL 4221E; listed as iodotoluene catalyst

Time @ 70° C. (for clear solution) [1]: half and ½ hr. | Solution Stability (after 14 days @ 25° C.) [2]: remained stable and clear
SMILES: CCCCCCCCCCCCC(O)COc1ccc([I+]c2ccc(C)cc2)cc1 (centres unmarked) [PCX-2519, [4-(2-hydroxy-1-tetradecyloxy)-phenyl] 4-methylphenyliodonium hexafluorophosphate]
